Here are results for 25 compounds from patent US8198456B2, “Dihydropyridine derivatives as useful as protein kinase inhibitors” (Bayer Intellectual Property GmbH, priority 2006, dated 2012).

T1 sequence (P08581 960-1390): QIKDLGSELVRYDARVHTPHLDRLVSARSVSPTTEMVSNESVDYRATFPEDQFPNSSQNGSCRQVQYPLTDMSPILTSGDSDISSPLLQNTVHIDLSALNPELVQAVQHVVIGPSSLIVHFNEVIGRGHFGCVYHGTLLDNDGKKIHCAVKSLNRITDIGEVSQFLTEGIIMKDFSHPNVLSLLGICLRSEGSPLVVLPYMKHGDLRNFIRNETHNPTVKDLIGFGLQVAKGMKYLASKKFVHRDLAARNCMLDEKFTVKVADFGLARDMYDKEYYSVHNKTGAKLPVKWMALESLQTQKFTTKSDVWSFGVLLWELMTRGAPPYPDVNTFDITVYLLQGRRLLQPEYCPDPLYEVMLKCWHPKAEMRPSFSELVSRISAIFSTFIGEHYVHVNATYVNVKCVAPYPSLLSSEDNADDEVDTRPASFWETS

The assay concerns the target T1, recombinant human c-MET kinase enzyme domain (Homo sapiens, UniProt P08581).
T1 construct: Recombinant c-Met kinase domain (amino acids 960-1390); His (N); made in house; host or cells: baculovirus expression system (insect cells; SF21 is named only for the alternative format)
Put plainly: c-MET receptor tyrosine kinase Homogeneous Time Resolved Fluorescence assay (HTRF). Format: biochemical. To be noted: Biological Example 1 and/or Biological Example 2. The method, boiled down:
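His-tagged c-Met kinase domain (aa 960-1390, baculovirus) phosphorylated biotinylated poly-Glu-Tyr (37 nM) with 20 μM ATP in HEPES pH 7.4, Mg/Mn, DTT, 1% DMSO, 20 min at ambient temperature, EDTA-stopped. HTRF read (PT66-Eu/streptavidin-XL665, 665/620 nm ratio) after 4 h; IC50 from eight 1:3.16 dilutions.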
(In TR-FRET formats the signal depends on donor and acceptor labels being close together.)
On to `CC1=C(C#N)C(c2ccc3[nH]nc(NCc4ccc(N5CCOCC5)cc4)c3c2)C(C#N)=C(C)N1` [compound 163, 1,4-dihydro-2,6-dimethyl-4-[3-[[[4-(4-morpholinyl)phenyl]methyl]amino]-1H-indazol-5-yl]-3,5-pyridinedicarbonitrile], for which the IC50 (in general, the concentration needed to halve the response being measured) is less than 100 nM. The same measure for `CC1=C(C#N)C(c2ccc3[nH]nc(N4CCNCC4)c3c2)C(C#N)=C(C)N1` [compound 164, 1,4-dihydro-2,6-dimethyl-4-[3-(1-piperazinyl)-1H-indazol-5-yl]-3,5-pyridinedicarbonitrile]: less than 100 nM.

In the case of `CC1=C(C#N)C(c2ccc3[nH]nc(CN4CCN(CCO)CC4)c3c2)C(C#N)=C(C)N1` [compound 166, 1,4-dihydro-4-[3-[[4-(2-hydroxyethyl)-1-piperazinyl]methyl]-1H-indazol-5-yl]-2,6-dimethyl-3,5-pyridinedicarbonitrile], the IC50 was less than 100 nM.

Take `CC1=C(C#N)C(c2ccc3[nH]nc(NCc4ccc(C(=O)N5CCC(O)C5)cc4)c3c2)C(C#N)=C(C)N1` (stereo not shown) [compound 168, 1,4-dihydro-4-[3-[[[4-[(3-hydroxy-1-pyrrolidinyl)carbonyl]phenyl]methyl]amino]-1H-indazol-5-yl]-2,6-dimethyl-3,5-pyridinedicarbonitrile]: the IC50 was less than 100 nM.

`CC1=C(C#N)C(c2ccc3[nH]nc(C(F)(F)F)c3c2)C(C#N)=C(C)N1` [compound 169, 1,4-dihydro-2,6-dimethyl-4-[3-(trifluoromethyl)-1H-indazol-5-yl]-3,5-pyridinedicarbonitrile]: the IC50 was 500 to 2500 nM. The same measure for `CC1=C(C#N)C(c2ccc3[nH]nc(-c4ncc[nH]4)c3c2)C(C#N)=C(C)N1` [compound 170, 1,4-dihydro-4-[3-(1H-imidazol-2-yl)-1H-indazol-5-yl]-2,6-dimethyl-3,5-pyridinedicarbonitrile]: less than 100 nM; for `CC1=C(C#N)C(c2ccc3[nH]nc(NCc4ccc(N(C)CCO)cc4)c3c2)C(C#N)=C(C)N1` [compound 172, 1,4-dihydro-4-[3-[[[4-[(2-hydroxyethyl)methylamino]phenyl]methyl]amino]-H-indazol-5-yl]-2,6-dimethyl-3,5-pyridinedicarbonitrile]: less than 100 nM; for `CC1=C(C#N)C(c2ccc3[nH]nc(-c4cn[nH]c4)c3c2)C(C#N)=C(C)N1` [compound 173, 1,4-dihydro-2,6-dimethyl-4-[3-(1H-pyrazol-4-yl)-1H-indazol-5-yl]-3,5-pyridinedicarbonitrile]: less than 100 nM. To `CC1=C(C#N)C(c2ccc3[nH]nc(-c4cnn(C)c4)c3c2)C(C#N)=C(C)N1` [compound 174, 1,4-dihydro-2,6-dimethyl-4-[3-(1-methyl-1H-pyrazol-4-yl)-1H-indazol-5-yl]-3,5-pyridinedicarbonitrile] belongs less than 100 nM. The same measure for `CC1=C(C#N)C(c2ccc3[nH]nc(-c4ccon4)c3c2)C(C#N)=C(C)N1` [compound 175, 1,4-dihydro-4-[3-(3-isoxazolyl)-1H-indazol-5-yl]-2,6-dimethyl-3,5-pyridinedicarbonitrile]: less than 100 nM.

Turning to `CC1=C(C#N)C(c2ccc3[nH]nc(O)c3c2)C(C#N)=C(C)N1` [compound 176, 1,4-dihydro-4-(3-hydroxy-1H-indazol-5-yl)-2,6-dimethyl-3,5-pyridinedicarbonitrile], the IC50 was 500 to 2500 nM. To `CC1=C(C#N)C(c2ccc3[nH]nc(-c4cnco4)c3c2)C(C#N)=C(C)N1` [compound 177, 1,4-dihydro-2,6-dimethyl-4-[3-(5-oxazolyl)-1H-indazol-5-yl]-3,5-pyridinedicarbonitrile] belongs less than 100 nM.

As to `CC1=C(C#N)C(c2ccc3[nH]nc(-c4cccs4)c3c2)C(C#N)=C(C)N1` [compound 178, 1,4-dihydro-2,6-dimethyl-4-[3-(2-thienyl)-1H-indazol-5-yl]-3,5-pyridinedicarbonitrile], the IC50 was less than 100 nM.

With `CNC(=O)c1cccc(C2C(C#N)=C(C)NC(C)=C2C#N)n1` [compound 189, 3′,5′-dicyano-1′,4′-dihydro-N,2′,6′-trimethyl-[2,4′-bipyridine]-6-carboxamide], the IC50 fell in the range of 500 to 2500 nM. To `CC1=C(C#N)C(c2cccc(C(=O)Nc3cccnc3)n2)C(C#N)=C(C)N1` [compound 190, 3′,5′-dicyano-1′,4′-dihydro-2′,6′-dimethyl-N-3-pyridinyl-[2,4′-bipyridine]-6-carboxamide] belongs 100 to 500 nM; to `CC1=C(C#N)C(c2cccc(C(=O)NCCCn3ccnc3)n2)C(C#N)=C(C)N1` [compound 191, 3′,5′-dicyano-1′,4′-dihydro-N-[3-(1H-imidazol-1-yl)propyl]-2′,6′-dimethyl-[2,4′-bipyridine]-6-carboxamide], 100 to 500 nM. The same measure for `CC1=C(C#N)C(c2cccc(C(=O)Nc3ccccn3)n2)C(C#N)=C(C)N1` [compound 192, 3′,5′-dicyano-1′,4′-dihydro-2′,6′-dimethyl-N-2-pyridinyl-[2,4′-bipyridine]-6-carboxamide]: less than 100 nM; for `CC1=C(C#N)C(c2cnc3[nH]ncc3c2)C(C#N)=C(C)N1` [compound 204, 1,4-dihydro-2,6-dimethyl-4-(1H-pyrazolo[3,4-b]pyridin-5-yl)-3,5-pyridinedicarbonitrile]: less than 100 nM.

For the compound `COC(=O)c1cccc(C2C(C#N)=C(C)NC(c3ccccc3)=C2C#N)c1` (stereo not shown) [compound 219, 3-(3,5-dicyano-1,4-dihydro-2-methyl-6-phenyl-4-pyridinyl)-benzoic acid, methyl ester], the IC50 was less than 100 nM. In the case of `COC(=O)c1cccc(C2C(C#N)=C(C)NC(C3CCCN(C(C)=O)C3)=C2C#N)c1` (stereo not shown) [compound 229, 3-[2-(1-acetyl-3-piperidinyl)-3,5-dicyano-1,4-dihydro-6-methyl-4-pyridinyl]-benzoic acid, methyl ester], the IC50 lay within 100 to 500 nM.

With `COC(=O)c1cccc(C2C(C#N)=C(C)NC(C3CCCN(C(N)=O)C3)=C2C#N)c1` (stereo not shown) [compound 230, 3-[2-[1-(aminocarbonyl)-3-piperidinyl]-3,5-dicyano-1,4-dihydro-6-methyl-4-pyridinyl]-benzoic acid, methyl ester], the IC50 was 100 to 500 nM. `COC(=O)c1cccc(C2C(C#N)=C(C)NC(c3cccc([N+](=O)[O-])c3)=C2C#N)c1` (stereo not shown) [compound 232, 3-[3,5-dicyano-1,4-dihydro-2-methyl-6-(3-nitrophenyl)-4-pyridinyl]-benzoic acid, methyl ester]: the IC50 lay in the range of 500 to 2500 nM. To `COC(=O)c1cccc(C2C(C#N)=C(C)NC(c3ccc([N+](=O)[O-])cc3)=C2C#N)c1` (stereo not shown) [compound 233, 3-[3,5-dicyano-1,4-dihydro-2-methyl-6-(4-nitrophenyl)-4-pyridinyl]-benzoic acid, methyl ester] belongs 500 to 2500 nM; to `COC(=O)c1cccc(C2C(C#N)=C(C)NC(c3ccc(O)cc3)=C2C#N)c1` (stereo not shown) [compound 234, 3-[3,5-dicyano-1,4-dihydro-2-(4-hydroxyphenyl)-6-methyl-4-pyridinyl]-benzoic acid, methyl ester], 100 to 500 nM. In the case of `COC(=O)c1cccc(C2C(C#N)=C(C)NC(c3cccc(N)c3)=C2C#N)c1` (stereo not shown) [compound 235, 3-[2-(3-aminophenyl)-3,5-dicyano-1,4-dihydro-6-methyl-4-pyridinyl]-benzoic acid, methyl ester], the IC50 lay within 100 to 500 nM.
